Measured values as given in ChEMBL document CHEMBL5550146, “Design, synthesis, and biological evaluation of novel sesquiterpene lactone derivatives as PKM2 activators with potent anti-ulcerative colitis activities” (Eur J Med Chem, 2024).
Calls of active or inactive are those of the source. No cut-off for these calls is given here.

Tests used:
[1] = tested on: T-cell; experiment: Antiproliferative activity against concanavalin A-stimulated C57BL/6 mouse T cells measured after 48 hrs by CCK8 assay; format: functional, cell-based; details: C57BL/6, T-cell
[2] = molecular target: Pyruvate kinase PKM (Homo sapiens, UniProt P14618); experiment: Activation of recombinant human PKM2 incubated for 40 mins by pyruvate kinase assay
[3] = tested on: Mus musculus; experiment: Antiinflammatory activity in DSS-induced colitis female C57BL/6 mouse model assessed as reduction in shortening of colon length at 200 mg/kg, ip administered for 12 days with subsequent treatment of DSS for 9 days followed by drinking water for 3 days; format: functional, organism-based; details: time 12.0 day

Chain of Pyruvate kinase PKM (P14618 whole entry): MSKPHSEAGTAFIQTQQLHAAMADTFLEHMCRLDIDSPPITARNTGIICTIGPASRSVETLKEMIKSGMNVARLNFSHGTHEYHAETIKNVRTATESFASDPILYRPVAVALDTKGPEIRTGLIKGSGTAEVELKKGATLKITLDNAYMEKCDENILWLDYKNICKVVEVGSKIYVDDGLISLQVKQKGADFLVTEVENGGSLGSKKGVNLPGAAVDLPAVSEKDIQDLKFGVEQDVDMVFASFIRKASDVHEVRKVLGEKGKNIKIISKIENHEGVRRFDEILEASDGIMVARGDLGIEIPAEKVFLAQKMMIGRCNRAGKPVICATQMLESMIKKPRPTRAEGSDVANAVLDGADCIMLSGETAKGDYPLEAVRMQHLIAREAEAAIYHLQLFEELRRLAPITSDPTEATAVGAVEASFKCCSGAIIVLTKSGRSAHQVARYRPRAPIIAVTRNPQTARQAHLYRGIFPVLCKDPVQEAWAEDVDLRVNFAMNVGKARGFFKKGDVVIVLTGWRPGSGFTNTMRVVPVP

AC50 [2] [nM] | Structure (SMILES) | IC50 [1] [nM] | Activity [3]
> 3000 | C=C1C(=O)O[C@H]2[C@H]1CC/C(COC(=O)NOC)=C\CC[C@@]1(C)O[C@@H]21 | 2340 | –
– | COc1ccc(/C=C2/C(=O)O[C@H]3[C@H]2CC/C(C)=C/CC[C@@]2(C)O[C@@H]32)cc1 | 4600 | –
567 | C=C1C(=O)O[C@H]2[C@H]1CC/C(COC(=O)N1CCN(C)CC1)=C\CC[C@@]1(C)O[C@@H]21 | 1040 | –
> 3000 | C=C1C(=O)O[C@H]2[C@H]1C[C@@H](F)/C(C)=C/CC[C@@]1(C)O[C@@H]21 | 2370 | –
660 | C=C1C(=O)O[C@H]2[C@H]1CC/C(COC(=O)N(CCC)CCC)=C\CC[C@@]1(C)O[C@@H]21 | 1180 | –
– | C/C1=C\CC[C@@]2(C)O[C@H]2[C@H]2OC(=O)/C(=C/c3ccccc3)[C@@H]2CC1 | 4270 | –
– | C=C1C(=O)O[C@H]2[C@H]1C[C@@H](O)/C(C)=C/CC[C@@]1(C)O[C@@H]21 | 3470 | –
966 | C=C1C(=O)O[C@H]2[C@H]1CC/C(CNS(=O)(=O)c1ccc([N+](=O)[O-])cc1)=C\CC[C@@]1(C)O[C@@H]21 | 1320 | –
> 3000 | C=C1C(=O)O[C@H]2[C@H]1CC/C(COC(=O)N1CCN(CC)CC1)=C\CC[C@@]1(C)O[C@@H]21 | 2370 | –
– | Nc1ccc(O)c(C(=O)O)c1 | – | Active
> 3000 | C=C1C(=O)O[C@H]2[C@H]1CC/C(COC(=O)NCCN(C)C)=C\CC[C@@]1(C)O[C@@H]21 | 2880 | –
– | C/C1=C\CC[C@@]2(C)O[C@H]2[C@H]2OC(=O)/C(=C/c3cccc4ccccc34)[C@@H]2CC1 | 4530 | –
> 3000 | C=C1C(=O)O[C@H]2[C@H]1CC/C(COC)=C\CC[C@@]1(C)O[C@@H]21 | 2330 | –
> 3000 | C=C1C(=O)O[C@H]2[C@H]1CC/C(CNS(=O)(=O)C(F)(F)F)=C\CC[C@@]1(C)O[C@@H]21 | 2980 | –
> 3000 | C=C1C(=O)O[C@H]2[C@H]1CC/C(CNS(C)(=O)=O)=C\CC[C@@]1(C)O[C@@H]21 | 3150 | –
> 3000 | C=C1C(=O)O[C@H]2[C@H]1CC/C(CNS(=O)(=O)C1CC1)=C\CC[C@@]1(C)O[C@@H]21 | 2650 | –

AC50 [2] [nM] | Structure (SMILES) | IC50 [1] [nM] | Activity [3]
– | C=C1C(=O)O[C@H]2[C@H]1C[C@@H](Br)/C(C)=C/CC[C@@]1(C)O[C@@H]21 | 3840 | –
867 | C=C1C(=O)O[C@H]2[C@H]1CC/C(CO)=C\CC[C@@]1(C)O[C@@H]21 | 1590 | –
637 | C=C1C(=O)O[C@H]2[C@H]1CC/C(CNS(=O)(=O)c1ccccc1)=C\CC[C@@]1(C)O[C@@H]21 | 1200 | –
> 3000 | C=C1C(=O)O[C@H]2[C@H]1CC/C(CNS(=O)(=O)CC)=C\CC[C@@]1(C)O[C@@H]21 | 2970 | –
1060 | C=C1C(=O)O[C@@H]2C3O[C@]3(C)CC/C=C(\C)CC[C@@H]12 (some centres undefined) | 1960 | –
> 3000 | C=C1C(=O)O[C@H]2[C@H]1CC/C(COC(=O)NC)=C\CC[C@@]1(C)O[C@@H]21 | 2600 | –
2220 | C=C1C(=O)O[C@H]2[C@H]1CC/C(COC(=O)NCC)=C\CC[C@@]1(C)O[C@@H]21 | 1700 | –
1230 | C=C1C(=O)O[C@H]2[C@H]1CC/C(CNS(=O)(=O)c1ccc(F)cc1)=C\CC[C@@]1(C)O[C@@H]21 | 1500 | –
736 | C=C1C(=O)O[C@H]2[C@H]1CC/C(COC(=O)N1CCCC1)=C\CC[C@@]1(C)O[C@@H]21 | 1780 | –
1570 | C=C1C(=O)O[C@H]2[C@H]1CC/C(COC(=O)N(C)C)=C\CC[C@@]1(C)O[C@@H]21 | 1630 | –
– | C=C1C(=O)O[C@H]2[C@H]1CC/C(C=O)=C\CC[C@@]1(C)O[C@@H]21 | > 10000 | –
> 3000 | C=C1C(=O)O[C@H]2[C@H]1CC/C(COC(=O)NCCN(CC)CC)=C\CC[C@@]1(C)O[C@@H]21 | 2520 | –
– | C=C1C(=O)O[C@H]2[C@H]1CC/C(C(=O)O)=C\CC[C@@]1(C)O[C@@H]21 | > 10000 | –
492 | C=C1C(=O)O[C@H]2[C@H]1CC/C(CNS(=O)(=O)c1ccc(OC)cc1)=C\CC[C@@]1(C)O[C@@H]21 | 1040 | –
812 | C=C1C(=O)O[C@H]2[C@H]1CC/C(COC(=O)NCCC)=C\CC[C@@]1(C)O[C@@H]21 | 1270 | –
